Data set [1] in a line: Stationary LPS-FITC binding assay on glass waveguide-immobilized PACs. Details: species or system E. coli. To be noted: patterned from 10 mg/mL solutions; LPS-FITC incubated 1 hour. From the text:
To determine the ability of PAC materials to effectively bind bacteria and bacterial cell components upon immobilization to a solid support, PACs from cranberry and grape juices were covalently attached to the surface of a glass microscope slide (waveguide) using a modification of a common technique used for protein immobilization (Rowe et al., Anal. Chem., 71, 3846 (1999)). Catechin monomer and buffer only areas were also included as controls. Briefly, the waveguides, glass microscope slides (Daigger, Wheeling, Ill.), were cleaned by immersion in potassium hydroxide/methanol solution (Cras et al., Biosens. Bioelectron., 14, 683 (1999)) followed by rinsing and drying. The clean waveguides were then incubated with 2% (3-mercaptopropyl)triethoxysilane (Pierce Chemicals, Rockford, Ill.) in toluene for 45 minutes followed by rinsing and drying. The slides were immersed in 1.8 mM N-[p-maleimidophenyl]isocyanate (PMPI) in ethanol for 1 hour. The maleimide-group of PMPI reacts with the sulfhydryl-group provided by the silane reaction leaving the isocyanate-group free to react with the hydroxyl-groups of PACs. […]
The ability of the immobilized PACs to bind LPS was investigated using a stationary assay. […] Slides were imaged using evanescent wave fluorescence spectroscopy with excitation at 496 nm and emission collected above 515 nm. […]

Data set [2] in a line: Pull-down of FITC-LPS by PAC beads after equilibration with lipid A. The settings on record: lipid A concentrations as high as 100 μM. It counts as binding, E. coli.
Protocol: Fluorescence-based pull down assays for lipopolysaccharide (LPS) were conducted in 50 mM TRIS at pH 8.0 using Sepharose-immobilized PACs and agarose-immobilized polymyxin B (Sigma-Aldrich, St. Louis, Mo.). Immobilized capture molecules and LPS were incubated at room temperature for 1 hour with constant agitation followed by rinsing and transfer to a 96-well plate. The fluorescence of the FITC-labeled LPS (from E. coli 055:B5; Sigma-Aldrich) was measured using a Tecan XSafire monochrometer-based micro plate reader at 495 nm excitation and 520 nm emission (5 nm bandwidths).
To further investigate this potential interaction, an assay for the presence of FITC-LPS using PAC-beads was conducted after equilibration of the PAC beads with varying concentrations of lipid A (FIG. 11). Assays were conducted with 3 μg/mL FITC-LPS (approx. 3 nM).
The test system of data set [3] is HEK 293 cells stably expressing human CD14 and TLR4/MD2. The experiment in a line: LPS membrane binding in HEK-CD14-TLR4/MD2 cells. It counts as cell-based. The settings on record: 25 nM LPS, 1.5 h, 37° C.; 0.5 μM PAC; antibodies 500 nM in binding sites. How it is done: Human embryonic kidney cells (HEK 293) stably expressing human CD14 and TLR4/MD2 (HEK-CD14-TLR4/MD2; Invivogen) were grown in chambered wells and incubated with 25 nM LPS (E. coli serotype 055:B5, Sigma) in the absence or presence of 0.5 μM LH20 PAC (Dial>6K) for 1.5 h at 37° C. […] After incubation, the cells were washed with PBS (10 min) twice and either fixed (with 3.7% paraformaldehyde) to assess LPS membrane binding or fixed and permeabilized (with 0.1% Triton X-100) to determine LPS internalization. After blocking with 1% normal goat serum, membrane bound or internalized LPS was detected using a goat anti-LPS antibody (O/K serotype-specific, Abeam) conjugated to fluorescein. Nuclei were counterstained with DAPI. Imaging was performed using an Olympus IX-71 microscope. The relative amounts of membrane-associated or intracellular fluorescence were quantified by image analysis using Image J software (NIH, v. 1.37). Data is reported as the mean channel fluorescence from membrane-associated or internalized LPS and represents the analysis of 10 to 20 cells from each sample (minimum 10 measurements per each cell). Merged images were produced using Photoshop CS2 (ver. 9).

The next data set deals with HEK-CD14-TLR4/MD2 cells. In words: Cytotoxicity, cell proliferation assay (CellTiter96). It counts as cell-based, human. The settings on record: 48 h culture. How it is done:
Cellular toxicity was measured using a […] cell proliferation assay (CellTiter96™, Promega). HEK-CD14-TLR4/MD2 cells were seeded into the wells of a 96-well plate (1×10^4 cells/well) and cultured with a dose range of test compounds for 48 h prior to assay according to the manufacturer's instructions.

As for catechin, the “binding of LPS-FITC by substance immobilized on glass waveguide” value in data set [1] is given as “no binding even at the highest concentrations tested”.
For the substance diphosphoryl lipid A, the “inhibition of FITC-LPS binding by immobilized PACs at high lipid A concentration” value in data set [2] is reported as at most 80%. In addition, in data set [3], the “decrease in membrane-bound LPS” value is on record as “did not significantly reduce LPS membrane binding”. Besides, in the data set on HEK-CD14-TLR4/MD2 cells, the “concentrations at which toxicity was not elicited” value is “below 3 μM”.
